Test: xn = mol fraction of the nth substance listed
Conditions: Liquid; for viscosity: Concentric cylinders viscometry; for mass density: Vibrating tube method

Cc1ccc(C)c(C)c1 [1,2,4-trimethylbenzene] + CCCCO
Conditions	mass density [kg/m3]	viscosity [mPa·s]
323.15 K, 100 kPa, x2 = 0.7975	–	1.027
323.15 K, 100 kPa, x2 = 0.9131	–	1.22
333.15 K, 100 kPa, x2 = 0	843.6	0.562
333.15 K, 100 kPa, x2 = 0.1002	–	0.552
333.15 K, 100 kPa, x2 = 0.1005	836.9	–
333.15 K, 100 kPa, x2 = 0.2261	830.2	–
333.15 K, 100 kPa, x2 = 0.2327	–	0.564
333.15 K, 100 kPa, x2 = 0.2999	826.1	–
333.15 K, 100 kPa, x2 = 0.3	–	0.582
333.15 K, 100 kPa, x2 = 0.3966	820.6	–
333.15 K, 100 kPa, x2 = 0.3969	–	0.6
333.15 K, 100 kPa, x2 = 0.5289	812.8	–
333.15 K, 100 kPa, x2 = 0.53	–	0.652
333.15 K, 100 kPa, x2 = 0.6367	805.8	–
333.15 K, 100 kPa, x2 = 0.637	–	0.711
333.15 K, 100 kPa, x2 = 0.7249	799.8	–
333.15 K, 100 kPa, x2 = 0.7975	–	0.853
333.15 K, 100 kPa, x2 = 0.7977	794.5	–
333.15 K, 100 kPa, x2 = 0.9131	785.6	0.996
333.15 K, 1000 kPa, x2 = 0	844.4	–
333.15 K, 1000 kPa, x2 = 0.1005	837.7	–
333.15 K, 1000 kPa, x2 = 0.2261	831	–
333.15 K, 1000 kPa, x2 = 0.2999	826.9	–
333.15 K, 1000 kPa, x2 = 0.3966	821.4	–
333.15 K, 1000 kPa, x2 = 0.5289	813.6	–
333.15 K, 1000 kPa, x2 = 0.6367	806.6	–
333.15 K, 1000 kPa, x2 = 0.7249	800.7	–
333.15 K, 1000 kPa, x2 = 0.7977	795.3	–
333.15 K, 1000 kPa, x2 = 0.9131	786.4	–
333.15 K, 5000 kPa, x2 = 0	847.6	–
333.15 K, 5000 kPa, x2 = 0.1005	841	–
333.15 K, 5000 kPa, x2 = 0.2261	834.4	–
333.15 K, 5000 kPa, x2 = 0.2999	830.3	–
333.15 K, 5000 kPa, x2 = 0.3966	824.8	–
333.15 K, 5000 kPa, x2 = 0.5289	817.1	–
333.15 K, 5000 kPa, x2 = 0.6367	810.1	–
333.15 K, 5000 kPa, x2 = 0.7249	804.2	–
333.15 K, 5000 kPa, x2 = 0.7977	798.8	–
333.15 K, 5000 kPa, x2 = 0.9131	789.9	–
333.15 K, 10000 kPa, x2 = 0	851.4	–
333.15 K, 10000 kPa, x2 = 0.1005	844.9	–
333.15 K, 10000 kPa, x2 = 0.2261	838.3	–
333.15 K, 10000 kPa, x2 = 0.2999	834.2	–
333.15 K, 10000 kPa, x2 = 0.3966	828.8	–
333.15 K, 10000 kPa, x2 = 0.5289	821.1	–
333.15 K, 10000 kPa, x2 = 0.6367	814.2	–
333.15 K, 10000 kPa, x2 = 0.7249	808.3	–
333.15 K, 10000 kPa, x2 = 0.7977	803	–
333.15 K, 10000 kPa, x2 = 0.9131	794.1	–
333.15 K, 20000 kPa, x2 = 0	858.6	–
333.15 K, 20000 kPa, x2 = 0.1005	852.4	–
333.15 K, 20000 kPa, x2 = 0.2261	845.8	–
333.15 K, 20000 kPa, x2 = 0.2999	841.8	–
333.15 K, 20000 kPa, x2 = 0.3966	836.4	–
333.15 K, 20000 kPa, x2 = 0.5289	828.7	–
333.15 K, 20000 kPa, x2 = 0.6367	821.9	–
333.15 K, 20000 kPa, x2 = 0.7249	816	–
333.15 K, 20000 kPa, x2 = 0.7977	810.7	–
333.15 K, 20000 kPa, x2 = 0.9131	801.9	–
333.15 K, 30000 kPa, x2 = 0	865.3	–
333.15 K, 30000 kPa, x2 = 0.1005	859.2	–
333.15 K, 30000 kPa, x2 = 0.2261	852.8	–
333.15 K, 30000 kPa, x2 = 0.2999	848.7	–
333.15 K, 30000 kPa, x2 = 0.3966	843.4	–
333.15 K, 30000 kPa, x2 = 0.5289	835.7	–
333.15 K, 30000 kPa, x2 = 0.6367	828.9	–
333.15 K, 30000 kPa, x2 = 0.7249	823.1	–
333.15 K, 30000 kPa, x2 = 0.7977	817.8	–
333.15 K, 30000 kPa, x2 = 0.9131	809.1	–
333.15 K, 40000 kPa, x2 = 0	871.6	–
333.15 K, 40000 kPa, x2 = 0.1005	865.5	–
333.15 K, 40000 kPa, x2 = 0.2261	859.2	–
333.15 K, 40000 kPa, x2 = 0.2999	855.2	–
333.15 K, 40000 kPa, x2 = 0.3966	849.8	–
333.15 K, 40000 kPa, x2 = 0.5289	842.2	–
333.15 K, 40000 kPa, x2 = 0.6367	835.5	–
333.15 K, 40000 kPa, x2 = 0.7249	829.6	–
333.15 K, 40000 kPa, x2 = 0.7977	824.4	–
333.15 K, 40000 kPa, x2 = 0.9131	815.6	–
333.15 K, 50000 kPa, x2 = 0	877.4	–
333.15 K, 50000 kPa, x2 = 0.1005	871.4	–
333.15 K, 50000 kPa, x2 = 0.2261	865.1	–
333.15 K, 50000 kPa, x2 = 0.2999	861.1	–
333.15 K, 50000 kPa, x2 = 0.3966	855.9	–
333.15 K, 50000 kPa, x2 = 0.5289	848.3	–
333.15 K, 50000 kPa, x2 = 0.6367	841.6	–
333.15 K, 50000 kPa, x2 = 0.7249	835.7	–
333.15 K, 50000 kPa, x2 = 0.7977	830.5	–
333.15 K, 50000 kPa, x2 = 0.9131	821.7	–
333.15 K, 60000 kPa, x2 = 0	883	–
333.15 K, 60000 kPa, x2 = 0.1005	877.1	–
333.15 K, 60000 kPa, x2 = 0.2261	870.8	–
333.15 K, 60000 kPa, x2 = 0.2999	866.8	–
333.15 K, 60000 kPa, x2 = 0.3966	861.6	–
333.15 K, 60000 kPa, x2 = 0.5289	854	–
333.15 K, 60000 kPa, x2 = 0.6367	847.3	–
333.15 K, 60000 kPa, x2 = 0.7249	841.4	–
333.15 K, 60000 kPa, x2 = 0.7977	836.3	–
333.15 K, 60000 kPa, x2 = 0.9131	827.5	–
333.15 K, 70000 kPa, x2 = 0	888.2	–
333.15 K, 70000 kPa, x2 = 0.1005	882.3	–
333.15 K, 70000 kPa, x2 = 0.2261	876.2	–
333.15 K, 70000 kPa, x2 = 0.2999	872.2	–
333.15 K, 70000 kPa, x2 = 0.3966	866.9	–
333.15 K, 70000 kPa, x2 = 0.5289	859.5	–
333.15 K, 70000 kPa, x2 = 0.6367	852.7	–
333.15 K, 70000 kPa, x2 = 0.7249	846.9	–
333.15 K, 70000 kPa, x2 = 0.7977	841.7	–
333.15 K, 70000 kPa, x2 = 0.9131	832.9	–
333.15 K, 80000 kPa, x2 = 0	893.2	–
333.15 K, 80000 kPa, x2 = 0.1005	887.4	–
333.15 K, 80000 kPa, x2 = 0.2261	881.2	–
333.15 K, 80000 kPa, x2 = 0.2999	877.2	–
333.15 K, 80000 kPa, x2 = 0.3966	872	–
333.15 K, 80000 kPa, x2 = 0.5289	864.6	–
333.15 K, 80000 kPa, x2 = 0.6367	857.8	–
333.15 K, 80000 kPa, x2 = 0.7249	852	–
333.15 K, 80000 kPa, x2 = 0.7977	846.8	–
333.15 K, 80000 kPa, x2 = 0.9131	838	–
333.15 K, 90000 kPa, x2 = 0	898	–
333.15 K, 90000 kPa, x2 = 0.1005	892.2	–
333.15 K, 90000 kPa, x2 = 0.2261	886	–
333.15 K, 90000 kPa, x2 = 0.2999	882.1	–
333.15 K, 90000 kPa, x2 = 0.3966	876.9	–
333.15 K, 90000 kPa, x2 = 0.5289	869.4	–
333.15 K, 90000 kPa, x2 = 0.6367	862.7	–
333.15 K, 90000 kPa, x2 = 0.7249	856.9	–
333.15 K, 90000 kPa, x2 = 0.7977	851.7	–
333.15 K, 90000 kPa, x2 = 0.9131	842.9	–
333.15 K, 100000 kPa, x2 = 0	902.5	–
333.15 K, 100000 kPa, x2 = 0.1005	896.8	–
333.15 K, 100000 kPa, x2 = 0.2261	890.7	–
333.15 K, 100000 kPa, x2 = 0.2999	886.7	–
333.15 K, 100000 kPa, x2 = 0.3966	881.5	–
333.15 K, 100000 kPa, x2 = 0.5289	874.1	–
333.15 K, 100000 kPa, x2 = 0.6367	867.4	–
333.15 K, 100000 kPa, x2 = 0.7249	861.6	–
333.15 K, 100000 kPa, x2 = 0.7977	856.4	–
333.15 K, 100000 kPa, x2 = 0.9131	847.6	–
333.15 K, 120000 kPa, x2 = 0	911.1	–
333.15 K, 120000 kPa, x2 = 0.1005	905.4	–
333.15 K, 120000 kPa, x2 = 0.2261	899.4	–
333.15 K, 120000 kPa, x2 = 0.2999	895.4	–
333.15 K, 120000 kPa, x2 = 0.3966	890.3	–
333.15 K, 120000 kPa, x2 = 0.5289	882.8	–
333.15 K, 120000 kPa, x2 = 0.6367	876.1	–
333.15 K, 120000 kPa, x2 = 0.7249	870.3	–
333.15 K, 120000 kPa, x2 = 0.7977	865.2	–
333.15 K, 120000 kPa, x2 = 0.9131	856.4	–
333.15 K, 140000 kPa, x2 = 0	919	–
333.15 K, 140000 kPa, x2 = 0.1005	913.3	–
333.15 K, 140000 kPa, x2 = 0.2261	907.6	–
333.15 K, 140000 kPa, x2 = 0.2999	903.3	–
333.15 K, 140000 kPa, x2 = 0.3966	898.3	–
333.15 K, 140000 kPa, x2 = 0.5289	891	–
333.15 K, 140000 kPa, x2 = 0.6367	884.3	–
333.15 K, 140000 kPa, x2 = 0.7249	878.6	–
333.15 K, 140000 kPa, x2 = 0.7977	873.5	–
333.15 K, 140000 kPa, x2 = 0.9131	864.5	–
